Reference: patent US20250311727A1, “SUBSTITUTED 2-AMINOAZINES AND SALTS THEREOF, AND USE THEREOF AS HERBICIDAL ACTIVE SUBSTANCES” (BAYER AKTIENGESELLSCHAFT, priority 2022, published 2025)

Columns and labels:
Type in all cases: in vivo
[1] = system: Abutilon theophrasti; experiment: Post-emergence herbicidal efficacy at 320 g/ha, ABUTH; details: rated visually after about 3 weeks vs untreated controls, 100% = plants have died
How it was run: (§1)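 One-leaf-stage weeds, sandy loam pots, greenhouse; foliar spray of WP/EC, 0.5% additive, 600 L/ha water; visual rating at ~3 wk, 0–100% vs untreated.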

[2] = system: Alopecurus myosuroides; experiment: Post-emergence herbicidal efficacy at 320 g/ha, ALOMY; details: rated visually after about 3 weeks vs untreated controls, 100% = plants have died
Source text: (§2) Unwanted plants/weeds: • ABUTH: Abutilon theophrasti • ALOMY: Alopecurus myosuroides • AMARE: Amaranthus retroflexus • DIGSA: Digitaria sanguinalis • ECHCG: Echinochloa crus-galli • KCHSC: Kochia scoparia • LOLRI: Lolium rigidum • MATIN: Matricaria inodora • POAAN: Poa annua • POLCO: Polygonum convolvulus • SETVI: Setaria viridis • STEME: Stellaria media • VERPE: Veronica persica • VIOTR: Viola tricolor A. Post-Emergence Herbicidal Efficacy at 320 g/ha
Seeds of mono- and dicotyledonous weed plants were placed in plastic pots in sandy loam soil (doubly sown with in each case one species of mono- or dicotyledonous weed plants per pot), covered with soil and cultivated in a greenhouse under controlled growth conditions. 2 to 3 weeks after sowing, the test plants were treated at the one-leaf stage. The compounds of the invention, formulated in the form of wettable powders (WP) or as emulsion concentrates (EC), were applied to the green parts of the plants as aqueous suspension or emulsion with addition of 0.5% additive at a water application rate equivalent to 600 litres per hectare. After the test plants had been kept in the greenhouse under optimum growth conditions for about 3 weeks, the activity of the preparations was rated visually in comparison to untreated controls.
For example, 100% activity=the plants have died, 0% activity=like control plants.
Tables A1 to A10 below show the effects of selected compounds of the general formula (I) according to Table 1 on various harmful plants and at an application rate corresponding to 320 g/ha, which were obtained by the trial procedure specified above.

[3] = system: Amaranthus retroflexus; experiment: Post-emergence herbicidal efficacy at 320 g/ha, AMARE; details: rated visually after about 3 weeks vs untreated controls, 100% = plants have died
How it was run: as §1

[4] = system: Digitaria sanguinalis; experiment: Post-emergence herbicidal efficacy at 320 g/ha, DIGSA; details: rated visually after about 3 weeks vs untreated controls, 100% = plants have died
How it was run: as §1

[5] = system: Kochia scoparia; experiment: Post-emergence herbicidal efficacy at 320 g/ha, KCHSC; details: rated visually after about 3 weeks vs untreated controls, 100% = plants have died
How it was run: as §1

[6] = system: Poa annua; experiment: Post-emergence herbicidal efficacy at 320 g/ha, POAAN; details: rated visually after about 3 weeks vs untreated controls, 100% = plants have died
How it was run: as §1

[7] = system: Stellaria media; experiment: Post-emergence herbicidal efficacy at 320 g/ha, STEME; details: rated visually after about 3 weeks vs untreated controls, 100% = plants have died
How it was run: as §1

[8] = system: Veronica persica; experiment: Post-emergence herbicidal efficacy at 320 g/ha, VERPE; details: rated visually after about 3 weeks vs untreated controls, 100% = plants have died
How it was run: as §1

[9] = system: Abutilon theophrasti; experiment: Post-emergence herbicidal efficacy at 80 g/ha, ABUTH; details: rated visually after about 3 weeks vs untreated controls, 100% = plants have died
Source text: as §2
(§3) Seeds of monocotyledonous and dicotyledonous weeds and crop plants were placed in sandy loam in plastic or organic planting pots, covered with soil and cultivated in a greenhouse under controlled growth conditions. 2 to 3 weeks after sowing, the test plants were treated at the one-leaf stage. The compounds of the invention, formulated in the form of wettable powders (WP) or as emulsion concentrates (EC), were then sprayed onto the green parts of the plants as aqueous suspension or emulsion with addition of 0.5% additive at a water application rate of 600 l/ha (converted). After the test plants had been kept in the greenhouse under optimum growth conditions for about 3 weeks, the activity of the preparations was rated visually in comparison to untreated controls. For example, 100% activity=the plants have died, 0% activity=like control plants.
(§4) Tables B1 to B11 below show the effects of selected compounds of the general formula (I) according to Table 1 on various harmful plants and an application rate corresponding to 80 g/ha, which were obtained by the experimental procedure mentioned above.

[10] = system: Alopecurus myosuroides; experiment: Post-emergence herbicidal efficacy at 80 g/ha, ALOMY; details: rated visually after about 3 weeks vs untreated controls, 100% = plants have died
Source text: as §2, §3, §4

[11] = system: Amaranthus retroflexus; experiment: Post-emergence herbicidal efficacy at 80 g/ha, AMARE; details: rated visually after about 3 weeks vs untreated controls, 100% = plants have died
How it was run: (§5)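 Post-emergence greenhouse test: one-leaf weeds sprayed with formulated compound (0.5% additive, 600 l/ha), visually rated about 3 weeks later against untreated controls.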

[12] = system: PHBPU; experiment: Post-emergence herbicidal efficacy at 80 g/ha, PHBPU; details: rated visually after about 3 weeks vs untreated controls, 100% = plants have died
Description: as §3, with “plants. Tables B1 to B11 below show the effects of selected compounds of the general formula (I) according to Table 1 on various harmful plants and an application rate corresponding to 80 g/ha, which were obtained by the experimental procedure mentioned above.” for “plants.”

[13] = system: Polygonum convolvulus; experiment: Post-emergence herbicidal efficacy at 80 g/ha, POLCO; details: rated visually after about 3 weeks vs untreated controls, 100% = plants have died
Source text: as §2
as §3, with “plants. […]” for “plants.”

[14] = system: Veronica persica; experiment: Post-emergence herbicidal efficacy at 80 g/ha, VERPE; details: rated visually after about 3 weeks vs untreated controls, 100% = plants have died
How it was run: as §5

[15] = system: Abutilon theophrasti; experiment: Pre-emergence herbicide efficacy at 320 g/ha, ABUTH; details: scored visually after about 3 weeks vs untreated controls, 100% = plants have died
How it was run: (§6)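 Compound formulated as wettable powder or emulsion concentrate is applied onto covered, sown sandy loam soil with 0.5% additive. Plants grow under greenhouse conditions, and after roughly 3 weeks weed control is rated by eye as a percentage relative to untreated pots.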

[16] = system: Amaranthus retroflexus; experiment: Pre-emergence herbicide efficacy at 320 g/ha, AMARE; details: scored visually after about 3 weeks vs untreated controls, 100% = plants have died
How it was run: as §6

[17] = system: Digitaria sanguinalis; experiment: Pre-emergence herbicide efficacy at 320 g/ha, DIGSA; details: scored visually after about 3 weeks vs untreated controls, 100% = plants have died
How it was run: as §6

[18] = system: Kochia scoparia; experiment: Pre-emergence herbicide efficacy at 320 g/ha, KCHSC; details: scored visually after about 3 weeks vs untreated controls, 100% = plants have died
How it was run: as §6

[19] = system: Poa annua; experiment: Pre-emergence herbicide efficacy at 320 g/ha, POAAN; details: scored visually after about 3 weeks vs untreated controls, 100% = plants have died
How it was run: as §6

[20] = system: Setaria viridis; experiment: Pre-emergence herbicide efficacy at 320 g/ha, SETVI; details: scored visually after about 3 weeks vs untreated controls, 100% = plants have died
How it was run: as §6

[21] = system: Stellaria media; experiment: Pre-emergence herbicide efficacy at 320 g/ha, STEME; details: scored visually after about 3 weeks vs untreated controls, 100% = plants have died
How it was run: as §6

[22] = system: Veronica persica; experiment: Pre-emergence herbicide efficacy at 320 g/ha, VERPE; details: scored visually after about 3 weeks vs untreated controls, 100% = plants have died
How it was run: as §6

[23] = system: Amaranthus retroflexus; experiment: Pre-emergence herbicide efficacy at 80 g/ha, AMARE; details: scored visually after about 3 weeks vs untreated controls, 100% = plants have died
How it was run: (§7)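 Compounds are applied to soil covering sown seeds (aqueous suspension or emulsion, 0.5% additive, 600 l/ha), before emergence. Pots stay in the greenhouse for about 3 weeks. Damage is then judged by eye as % of control, 100% meaning plant death.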

[24] = system: Polygonum convolvulus; experiment: Pre-emergence herbicide efficacy at 80 g/ha, POLCO; details: scored visually after about 3 weeks vs untreated controls, 100% = plants have died
How it was run: as §7

[25] = system: Setaria viridis; experiment: Pre-emergence herbicide efficacy at 80 g/ha, SETVI
How it was run: as §7

[26] = system: Veronica persica; experiment: Pre-emergence herbicide efficacy at 80 g/ha, VERPE
How it was run: as §7

[27] = system: Viola tricolor; experiment: Pre-emergence herbicide efficacy at 80 g/ha, VIOTR
How it was run: as §7

FC(F)c1cc(-c2ccccc2Nc2ncc(Cl)cn2)on1 [Example 1-31]
Post-emergence efficacy at 320 g/ha against ABUTH in % [1]: 100% | Post-emergence efficacy at 320 g/ha against ALOMY in % [2]: 100% | Post-emergence efficacy at 320 g/ha against AMARE in % [3]: 100% | Post-emergence efficacy at 320 g/ha against DIGSA in % [4]: 100% | Post-emergence efficacy at 320 g/ha against KCHSC in % [5]: 100% | Post-emergence efficacy at 320 g/ha against POAAN in % [6]: 100% | Post-emergence efficacy at 320 g/ha against STEME in % [7]: 100% | Post-emergence efficacy at 320 g/ha against VERPE in % [8]: 100% | Post-emergence efficacy at 80 g/ha against ABUTH in % [9]: 80% | Post-emergence efficacy at 80 g/ha against ALOMY in % [10]: 80% | Post-emergence efficacy at 80 g/ha against AMARE in % [11]: 90% | Post-emergence efficacy at 80 g/ha against PHBPU in % [12]: 80% | Post-emergence efficacy at 80 g/ha against POLCO in % [13]: 100% | Post-emergence efficacy at 80 g/ha against VERPE in % [14]: 90% | Pre-emergence efficacy at 320 g/ha against ABUTH in % [15]: 90% | Pre-emergence efficacy at 320 g/ha against AMARE in % [16]: 100% | Pre-emergence efficacy at 320 g/ha against DIGSA in % [17]: 100% | Pre-emergence efficacy at 320 g/ha against KCHSC in % [18]: 90% | Pre-emergence efficacy at 320 g/ha against POAAN in % [19]: 100% | Pre-emergence efficacy at 320 g/ha against SETVI in % [20]: 100% | Pre-emergence efficacy at 320 g/ha against STEME in % [21]: 100% | Pre-emergence efficacy at 320 g/ha against VERPE in % [22]: 100% | Pre-emergence efficacy at 80 g/ha against AMARE in % [23]: 100% | Pre-emergence efficacy at 80 g/ha against POLCO in % [24]: 80% | Pre-emergence efficacy against SETVI [25]: 100% | Pre-emergence efficacy against VERPE [26]: 90% | Pre-emergence efficacy against VIOTR [27]: 90%
